Measurements: PubChem BioAssay AID2060910 (Molecular Pharmacology Branch, DTP, NCI, 2025)

Tested on: 242566-281-R-J2-PDC complex spheroid viability
Assay: Anticancer human tumor 242566-281-R-J2-PDC patient-derived pancreatic carcinoma cell line growth inhibition [RAS]
Details: for IC50: curve of first compound; for viability, T/C: stronger effect = lower value
Source text: RAS pathway inhibitors in Combinations in Complex Spheroids
A high-throughput screen of multi-cell type tumor spheroids was designed to identify active combinations of RAS pathway inhibitors and targeted small molecules. Complex spheroids include a stromal component modeled by human endothelial cells (HUVEC) and fibroblasts modeled by human mesenchymal stem cells (MSCs). The concentration ranges selected for each drug and investigational agent were based upon clinically achievable concentrations if the clinical Cmax of the agent was known.
Compounds. The drugs and investigational agents: abemaciclib (NSC768073), cobimetinib (NSC768068), divarasib (GDC6063, NSC841802), docetaxel (NSC628503), GDC-1971 (RLY-1971, NSC841576), gemcitabine (NSC613327), inavolisib (NSC800729), ipatasertib (NSC767898), KB-0742 (NSC834161), MRTX-1133 (NSC836407), osimertinib (NSC779217), RMC-4630 (NSC839698), RMC-6236 (NSC851965), RMC-6291 (NSC852671), Ro-3306 (NSC812927), sapanisertib (NSC764658), SN-38 (NSC673596), staurosporine (NSC755774), SY5609 (NSC837396), and tovorafenib (DAY101, NSC766906), were obtained from the National Cancer Institute (NCI) Developmental Therapeutics Program Chemical Repository. The FDA-approved anticancer drug set is available from the NCI Developmental Therapeutics Program. […] The stock solutions were prepared in dimethyl sulfoxide (DMSO, Sigma-Aldrich, St. Louis, MO, cat. D2650) at 800-fold the tested concentration and stored at -70 degrees C prior to their use. All drugs and investigational agents were tested over a range starting from a high concentration at or near the clinical Cmax and decreasing in half-log increments. If the clinical Cmax for an agent had not been determined, the highest concentration tested was 10 microM.
Cell Culture. All cells were maintained in an incubator at 37 degrees C and 5% CO2 with 95% humidity. The PDC lines were cultured according to standard operating procedures established by the NCI PDMR. All PDCs were thawed and cultured in Matrigel-coated flasks prepared with a working solution of 1X Ham's F-12 nutrient mix, without supplementation (Invitrogen, Waltham, MA, cat. 11765054), 100 U/mL penicillin-streptomycin (Invitrogen, cat. 15140122), and 2.5% Matrigel (Corning Inc., Corning, NY, cat. 354248) for the first three passages. The 362531-283-R-J2-PDC and 782815-120-R-J1-PDC lines were cultured in 6C/Colon 1B media, which includes advanced DMEM/F-12 (Thermo Fisher Scientific, cat. 12634028), 10 mM HEPES (Thermo Fisher Scientific, cat. 15630080), 1X GlutaMAX supplement (Thermo Fisher Scientific, cat. 35050061), 0.1 mg/mL primocin (InvivoGen, San Diego, CA, cat. ant-pm-2), 10% defined fetal bovine serum, heat inactivated (HyClone Laboratories Inc., Logan, UT, cat. SH30070.03HI), 50% L-WRN conditioned media (ATCC, cat. CRL-3276), 1.25 mM N-Acetyl-L-cysteine (Sigma-Aldrich, cat. A9165), 10 mM nicotinamide (Sigma-Aldrich, cat. N0636), 1X B-27 supplement (Thermo Fisher Scientific, cat. 17504044), 1X N-2 supplement (Thermo Fisher Scientific, cat. 17502048), 50 ng/mL human EGF (Thermo Fisher Scientific, cat. PHG0311), and 10 microM Y-27632 dihydrochloride (Tocris Bioscience, cat. 1254). The K12877-001-R-J1-PDC line was cultured in 6I media, which includes all 6C/Colon 1B media plus 10 ng/mL human FGF-10 (PeproTech, cat. 100-26), 1 ng/mL human FGF-2 (PeproTech, cat. 100-18B), 1 µM prostaglandin E2 (Tocris Bioscience, cat. 2296), […] hydrocortisone (Sigma-Aldrich, cat. H4001), and […] bovine insulin (Sigma-Aldrich, cat. I6634). The K86415-001-R-J1-PDC line was cultured in 6D media, which includes all 6C/Colon 1B media components minus the L-WRN conditioned media. The 485176-168-R4-J1-PDC was cultured in PANC media, which includes all 6C/Colon 1B media plus 100 ng/mL human FGF-10 (PeproTech, cat. 100-26), 500 nM SB-431542 (Selleckchem, cat. S1067), and 10 nM gastrin (Tocris Bioscience, cat. 3006). […]
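Also: spheroids exposed to compound for 7 days before readout.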
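For viability, T/C in this document: 100% = DMSO vehicle control wells.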

For `CC(C)NCC(C(=O)N1CCN(c2ncnc3c2C(C)CC3O)CC1)c1ccc(Cl)cc1` (configuration not stated) + C#Cc1c(F)ccc2cc(O)cc(-c3ncc4c(N5CC6CCC(C5)N6)nc(OCC56CCCN5CC(F)C6)nc4c3F)c12, the IC50 (second compound 0.0316 µM) was 7270 nM, the IC50 (second compound 0.1 µM) was 2950 nM and the IC50 (second compound 0.316 µM) was 1750 nM. The IC50 (second compound 1 µM) was 701 nM, the IC50 (second compound 3.16 µM) was 404 nM and the IC50 (second compound 10 µM) was 392 nM. For the same compound, the viability, T/C (second compound 0.0316 µM, first compound 0.0316 µM) was 74.9%, the viability, T/C (second compound 0.0316 µM, first compound 0.1 µM) was 116% and the viability, T/C (second compound 0.0316 µM, first compound 0.316 µM) was 86.2%. For the same compound, the viability, T/C (second compound 0.0316 µM, first compound 1 µM) was 84.8%, the viability, T/C (second compound 0.0316 µM, first compound 3.16 µM) was 66.6% and the viability, T/C (second compound 0.0316 µM, first compound 10 µM) was 43.7%. For the same compound, the viability, T/C (second compound 0.1 µM, first compound 0.0316 µM) was 97.8%, the viability, T/C (second compound 0.1 µM, first compound 0.1 µM) was 78.6% and the viability, T/C (second compound 0.1 µM, first compound 0.316 µM) was 74.5%. The viability, T/C (second compound 0.1 µM, first compound 1 µM) was 54.8%, the viability, T/C (second compound 0.1 µM, first compound 3.16 µM) was 58% and the viability, T/C (second compound 0.1 µM, first compound 10 µM) was 34.5%. The viability, T/C (second compound 0.316 µM, first compound 0.0316 µM) was 81.2%, the viability, T/C (second compound 0.316 µM, first compound 0.1 µM) was 81.1% and the viability, T/C (second compound 0.316 µM, first compound 0.316 µM) was 64.9%. For the same compound, the viability, T/C (second compound 0.316 µM, first compound 1 µM) was 55%, the viability, T/C (second compound 0.316 µM, first compound 3.16 µM) was 45.8% and the viability, T/C (second compound 0.316 µM, first compound 10 µM) was 23.9%. The viability, T/C (second compound 1 µM, first compound 0.0316 µM) was 71.8%, the viability, T/C (second compound 1 µM, first compound 0.1 µM) was 68.3% and the viability, T/C (second compound 1 µM, first compound 0.316 µM) was 59.4%. It also gave a viability, T/C (second compound 1 µM, first compound 1 µM) of 41.4%, a viability, T/C (second compound 1 µM, first compound 3.16 µM) of 37.5% and a viability, T/C (second compound 1 µM, first compound 10 µM) of 18.4%. The viability, T/C (second compound 3.16 µM, first compound 0.0316 µM) was 62.8%, the viability, T/C (second compound 3.16 µM, first compound 0.1 µM) was 64.2% and the viability, T/C (second compound 3.16 µM, first compound 0.316 µM) was 53.9%. The viability, T/C (second compound 3.16 µM, first compound 1 µM) was 34.5%, the viability, T/C (second compound 3.16 µM, first compound 3.16 µM) was 24.8% and the viability, T/C (second compound 3.16 µM, first compound 10 µM) was 16.4%. It also gave a viability, T/C (second compound 10 µM, first compound 0.0316 µM) of 61.6%, a viability, T/C (second compound 10 µM, first compound 0.1 µM) of 59.6% and a viability, T/C (second compound 10 µM, first compound 0.316 µM) of 52.7%. For the same compound, the viability, T/C (second compound 10 µM, first compound 1 µM) was 38.1%, the viability, T/C (second compound 10 µM, first compound 3.16 µM) was 22% and the viability, T/C (second compound 10 µM, first compound 10 µM) was 14.3%.
